# According to patent US8536351B2, “2-aryl-5-heterocyclyl-cyclohexane-1,3,dione compounds and their use as herbicides” (Syngenta Crop Protection LLC, priority 2007, dated 2013):
# Tests used:
# Type in all cases: in vivo
# [1] = system: Alopecurus myosuroides (ALOMY); assay: Pre-emergence activity, glasshouse pot test (100=total damage to plant; 0=no damage to plant); conditions: rate 500 g/ha, evaluated 19, 20 or 21 days after spraying
# Protocol: (§1) Monocotyledonous and dicotyledonous test plants were sown in standard soil in pots. After cultivation for one day (pre-emergence) or after 10 days cultivation (post-emergence) under controlled conditions in a glasshouse, the plants were sprayed with an aqueous spray solution derived from the formulation of the technical active ingredient in 0.6 ml acetone and 45 ml formulation solution containing 10.6% Emulsogen EL (Registry number 61791-12-6), 42.2% N-methyl pyrrolidone, 42.2% dipropylene glycol monomethyl ether (Registry number 34590-94-8) and 0.2% X-77 (Registry number 11097-66-8). The test plants were then grown in a greenhouse under optimum conditions until, 14 or 15 days later for post-emergence and 19, 20 or 21 days for pre-emergence, the test was evaluated (100=total damage to plant; 0=no damage to plant). Alopecurus myosuroides (ALOMY), Avena fatua (AVEFA), Lolium perenne (LOLPE), Setaria faberi (SETFA), Digitaria sanguinalis (DIGSA), Echinochloa crus-galli (ECHCG) Pre-Emergence Activity
# [2] = system: Avena fatua (AVEFA); assay: as above; conditions: rate 500 g/ha, evaluated 19, 20 or 21 days after spraying
# Protocol: as §1
# [3] = system: Digitaria sanguinalis (DIGSA); assay: as above; conditions: rate 500 g/ha, evaluated 19, 20 or 21 days after spraying
# Protocol: as §1
# [4] = system: Echinochloa crus-galli (ECHCG); assay: as above; conditions: rate 500 g/ha, evaluated 19, 20 or 21 days after spraying
# Protocol: as §1
# [5] = system: Lolium perenne (LOLPE); assay: as above; conditions: rate 500 g/ha, evaluated 19, 20 or 21 days after spraying
# Protocol: as §1
# [6] = system: Setaria faberi (SETFA); assay: as above; conditions: rate 500 g/ha, evaluated 19, 20 or 21 days after spraying
# Protocol: as §1
# [7] = system: Alopecurus myosuroides (ALOMY); assay: Post-emergence activity, glasshouse pot test (100=total damage to plant; 0=no damage to plant); conditions: 336 h, evaluated 14 or 15 days after spraying; for pest or weed control at 500 g/ha: rate 500 g/ha
# Protocol: as §1, with “Post-Emergence” for “Pre-Emergence”
# [8] = system: Avena fatua (AVEFA); assay: as above; conditions: 336 h, evaluated 14 or 15 days after spraying; for pest or weed control at 500 g/ha: rate 500 g/ha
# Protocol: as §1, with “Post-Emergence” for “Pre-Emergence”
# [9] = system: Digitaria sanguinalis (DIGSA); assay: as above; conditions: evaluated 14 or 15 days after spraying; for pest or weed control at 500 g/ha: rate 500 g/ha
# Protocol: as §1, with “Post-Emergence” for “Pre-Emergence”
# [10] = system: Echinochloa crus-galli (ECHCG); assay: as above; conditions: evaluated 14 or 15 days after spraying; for pest or weed control at 500 g/ha: rate 500 g/ha
# Protocol: as §1, with “Post-Emergence” for “Pre-Emergence”
# [11] = system: Lolium perenne (LOLPE); assay: as above; conditions: 336 h, evaluated 14 or 15 days after spraying; for pest or weed control at 500 g/ha: rate 500 g/ha
# Protocol: as §1, with “Post-Emergence” for “Pre-Emergence”
# [12] = system: Setaria faberi (SETFA); assay: as above; conditions: evaluated 14 or 15 days after spraying; for pest or weed control at 500 g/ha: rate 500 g/ha
# Protocol: as §1, with “Post-Emergence” for “Pre-Emergence”
Structure (SMILES),pest or weed control at 500 g/ha [1] [%],pest or weed control at 500 g/ha [2] [%],pest or weed control at 500 g/ha [3] [%],pest or weed control at 500 g/ha [4] [%],pest or weed control at 500 g/ha [5] [%],pest or weed control at 500 g/ha [6] [%],pest or weed control at 500 g/ha [7] [%],pest or weed control at 500 g/ha [8] [%],pest or weed control at 500 g/ha [9] [%],pest or weed control at 500 g/ha [10] [%],pest or weed control at 500 g/ha [11] [%],pest or weed control at 500 g/ha [12] [%],pest or weed control at 125 g/ha ([7]; rate 125 g/ha) [%],pest or weed control at 125 g/ha ([8]; rate 125 g/ha) [%],pest or weed control at 125 g/ha ([9]; rate 125 g/ha) [%],pest or weed control at 125 g/ha ([10]; rate 125 g/ha) [%],pest or weed control at 125 g/ha ([11]; rate 125 g/ha) [%],pest or weed control at 125 g/ha ([12]; rate 125 g/ha) [%]
CCc1cc(C)cc(C)c1C1=C(O)CC(C2CCOC2)CC1=O (stereo not drawn) [Compound T11],80,70,100,100,80,100,90,90,100,100,90,100,,,,,,
CCc1ccc(-c2ccc(Cl)cc2)cc1C1=C(O)CC(C2CCOCC2)CC1=O (stereo not drawn) [Compound T8],100,60,100,100,80,100,80,70,90,90,100,90,,,,,,
Cc1cc(C)c(C2=C(O)CC(C3CCSCC3)CC2=O)c(C)c1 (stereo not drawn) [Compound T15],60,60,70,20,80,90,60,20,80,70,60,90,,,,,,
CCc1cc(C)cc(C)c1C1=C(O)CC(C2CCOCC2)CC1=O (stereo not drawn) [Compound T12],90,90,100,100,100,100,90,90,100,100,90,100,,,,,,
CCc1cc(C)cc(CC)c1C1=C(O)CC(C2CCCS(=O)(=O)C2)CC1=O (stereo not drawn) [Compound T19],100,90,100,100,100,100,80,90,100,100,80,100,,,,,,
CCc1cc(C)cc(CC)c1C1=C(O)CC(C2CCS(=O)(=O)CC2)CC1=O (stereo not drawn) [Compound T20],100,100,100,100,100,100,80,70,100,100,60,90,,,,,,
CCc1ccc(-c2ccc(Cl)cc2)cc1C1=C(O)CC(C2CCOC2)CC1=O (stereo not drawn) [Compound T6],90,20,100,100,100,100,100,90,100,100,100,100,,,,,,
CCc1cc(C)cc(CC)c1C1=C(O)CC(C2CCC[S+]([O-])C2)CC1=O (stereo not drawn) [Compound T23],100,100,100,50,100,70,,,,,,,90,90,70,80,90,50
CCc1cc(C)cc(CC)c1C1=C(O)CC(C2CCCSC2)CC1=O (stereo not drawn) [Compound T13],90,80,100,100,100,100,100,100,90,90,100,100,,,,,,
Cc1cc(C)c(C2=C(O)CC(C3CCS(=O)(=O)CC3)CC2=O)c(C)c1 (stereo not drawn) [Compound T17],20,70,60,60,0,50,20,20,90,90,0,90,,,,,,
CCc1cc(C)cc(C)c1C1=C(O)CC(C2CCSCC2)CC1=O (stereo not drawn) [Compound T21],40,70,100,100,40,100,80,70,80,100,70,90,,,,,,
Cc1ccc(-c2ccc(Cl)cc2)cc1C1=C(O)CC(C2CCOCC2)CC1=O (stereo not drawn) [Compound T9],60,60,80,100,100,100,80,70,90,100,100,80,,,,,,
CCc1cc(C)cc(CC)c1C1=C(O)CC(C2CC[S+]([O-])CC2)CC1=O (stereo not drawn) [Compound T22],90,90,,70,90,,90,90,100,80,80,100,,,,,,
Cc1cc(C)c(C2=C(O)CC(C3CCOC3)CC2=O)c(C)c1 (stereo not drawn) [Compound T10],90,50,80,80,,70,80,60,90,90,80,80,,,,,,
